In US20100055179A1, “Composition of and Method for Preparing Orally Disintegrating Tablets Containing a High Dose of Pharmaceutically Active Ingredients” (MALLINCKRODT INC., priority 2006, published 2010):

How the values were obtained:
Assay type in all cases: physicochemical
[1] = Hardness test (tablet crushing load, Varian VK-200)
Description: (1) Hardness test-The ODT tablet crushing load, which is the force (kilopond, kP) required to break a tablet into halves by compression in the diametral direction, was measured with a hardness tester (Varian Hardness Tester, VK-200).

[2] = Friability test (USP <1216>)
Description: (2) Friability test-The friability test method was performed by a Varian Friabilator according to the USP tablet friability method described in <1216> Tablet Friability of the General chapters describing General Test Assays.

[3] = In vitro disintegration test (USP Test No. 701)
Description: (3) In vitro disintegration test-The disintegration time of the tablets was determined according to U.S. Pharmacopeia, Test No. 701.

[4] = Wetting test (simulated in vivo disintegration time)
Description: (4) Wetting Test-One Whatman filter disc (21 mm in diameter) was placed in each well of a Corning 12-well polystyrene microplate (22 mm in diameter). One and a half […] of Sensient Blue #1 dye solution (similar to in vivo conditions-tongue surface) was then added into each well. An ODT tablet was carefully placed on the surface of the wet paper disc in each well using a pair of forceps, tablet face flat on the filter paper. Finally, the total wetting time was recorded as the time required for the blue dye solution to cover the surface of the tablet as simulated in vivo disintegration time.

[5] = 0.3% (w/w) APAP as COMPAP with Formulation A granules, Example 4
[6] = 0.3% (w/w) regular APAP blended with Formulation A granules, 400 mg tablet, Example 2
[7] = 0.3% (w/w) regular APAP wet-granulated with Formulation A, Example 3
[8] = 1.0% (w/w) APAP as COMPAP with Formulation A granules, Example 4
[9] = 1.0% (w/w) regular APAP blended with Formulation A granules, 400 mg tablet, Example 2
[10] = 1.0% (w/w) regular APAP wet-granulated with Formulation A, Example 3
[11] = 10.0% (w/w) APAP as COMPAP with Formulation A granules, Example 4
[12] = 10.0% (w/w) regular APAP blended with Formulation A granules, 400 mg tablet, Example 2
[13] = 10.0% (w/w) regular APAP wet-granulated with Formulation A, Example 3
[14] = 15.0% (w/w) regular APAP blended with Formulation A granules, 400 mg tablet, Example 2
[15] = 20.0% (w/w) APAP as COMPAP with Formulation A granules, Example 4
[16] = 20.0% (w/w) regular APAP wet-granulated with Formulation A, Example 3
[17] = 30.0% (w/w) APAP as COMPAP with Formulation A granules, Example 4
[18] = 30.0% (w/w) regular APAP wet-granulated with Formulation A, Example 3
[19] = 40.0% (w/w) APAP as COMPAP with Formulation A granules, Example 4
[20] = 50.0% (w/w) APAP as COMPAP with Formulation A granules, Example 4

CC(=O)Nc1ccc(O)cc1 [APAP, Acetaminophen]
Hardness [1, 5]: 7.9 kP | Hardness [1, 6]: 8.1 kP | Hardness [1, 7]: 8.1 kP | Hardness [1, 8]: 7.6 kP | Hardness [1, 9]: 9.3 kP | Hardness [1, 10]: 8.6 kP | Hardness [1, 11]: 8.0 kP | Hardness [1, 12]: 6.5 kP | Hardness [1, 13]: 8.5 kP | Hardness [1, 14]: 6.8 kP | Hardness [1, 15]: 9.1 kP | Hardness [1, 16]: 7.5 kP | Hardness [1, 17]: 7.2 kP | Hardness [1, 18]: 7.9 kP | Hardness [1, 19]: 5.7 kP | Hardness [1, 20]: 4.2 kP | Friability [2, 5]: 0.5% | Friability [2, 6]: 0.02% | Friability [2, 7]: 0.3% | Friability [2, 8]: 0.3% | Friability [2, 9]: 0.03% | Friability [2, 10]: 0.2% | Friability [2, 11]: 0.5% | Friability [2, 12]: 0.46% | Friability [2, 13]: 0.0% | Friability [2, 14]: 0.08% | Friability [2, 15]: 0.0% | Friability [2, 16]: 0.2% | Friability [2, 17]: 0.5% | Friability [2, 18]: 0.0% | Friability [2, 19]: 0.0% | Friability [2, 20]: 0.3% | USP-DIT (in vitro disintegration time, USP method) [3, 5]: 26 s | USP-DIT (in vitro disintegration time, USP method) [3, 6]: 18 s | USP-DIT (in vitro disintegration time, USP method) [3, 7]: 12 s | USP-DIT (in vitro disintegration time, USP method) [3, 8]: 15 s | USP-DIT (in vitro disintegration time, USP method) [3, 9]: 20 s | USP-DIT (in vitro disintegration time, USP method) [3, 10]: 12 s | USP-DIT (in vitro disintegration time, USP method) [3, 11]: 11 s | USP-DIT (in vitro disintegration time, USP method) [3, 12]: 9 s | USP-DIT (in vitro disintegration time, USP method) [3, 13]: 18 s | USP-DIT (in vitro disintegration time, USP method) [3, 14]: 10 s | USP-DIT (in vitro disintegration time, USP method) [3, 15]: 11 s | USP-DIT (in vitro disintegration time, USP method) [3, 16]: 19 s | USP-DIT (in vitro disintegration time, USP method) [3, 17]: 16 s | USP-DIT (in vitro disintegration time, USP method) [3, 18]: 28 s | USP-DIT (in vitro disintegration time, USP method) [3, 19]: 16 s | USP-DIT (in vitro disintegration time, USP method) [3, 20]: 16 s | Wetting time [4, 5]: 15 s | Wetting time [4, 6]: 12 s | Wetting time [4, 7]: 18 s | Wetting time [4, 8]: 16 s | Wetting time [4, 9]: 11 s | Wetting time [4, 10]: 21 s | Wetting time [4, 11]: 22 s | Wetting time [4, 12]: 10 s | Wetting time [4, 13]: 30 s | Wetting time [4, 14]: 9 s | Wetting time [4, 15]: 30 s | Wetting time [4, 16]: 25 s | Wetting time [4, 17]: 45 s | Wetting time [4, 18]: 21 s | Wetting time [4, 19]: 65 s | Wetting time [4, 20]: 117 s
